Patent publication US8945540B2, “Compositions for enhancing the antibacterial activity of myeloperoxidase and methods of use thereof” (Exoxemis, Inc., priority 2008, dated 2015)
Like-named read-outs stand apart in the source and are kept apart here.

Tests used:
Staphylococcus aureus [1] = assay: Microbicidal activity of the myeloperoxidase system (p-MPO, glucose oxidase, glucose) with amino acids in the presence of blood, CFU plate counts; synergy determination from these CFU; format: cell-based; details: for Average Viability CFU/ml 60 min / Log 10 (CFU + 1) Survivors 60 min / Log Reduction 60 min: MPO 38 U/ml, GO 33.3 U/ml; for Average Viability CFU/ml 50 min / Log Reduction 50 min: MPO 4.7 U/ml, GO 4.2 U/ml
Outline: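 Microbicidal activity of the MPO–glucose oxidase–glucose system against S. aureus with amino acids was assessed in 3% whole blood. Reactions of 1 mL were run at room temperature or 37° C and stopped with catalase. Surviving CFU were counted on trypticase soy agar. For each pair, Actual CFU was divided by Predicted CFU and multiplied by 100. This value was compared with variability-based thresholds to classify synergism, antagonism or additivity.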

Staphylococcus aureus [2] = assay: Control: microbicidal activity of the amino acid or analogue alone (no glucose, MPO, glucose oxidase) in the presence of blood; format: cell-based; details: MPO 0, GO 0, no glucose, blood; for log reduction at 5000 µM: Staphylococcus aureus, 1 h, read-out: Log Reduction 60 min
From the text: As a control to determine the microbicidal activity of the amino acids alone, the foregoing procedure was followed without replication, except in the absence of glucose, MPO, and glucose oxidase.

[3] = MPO 100 μg/mL, AA 20 mM, 30 min
[4] = MPO 100 μg/mL, AA 20 mM, 60 min
[5] = Table 2, amino acid 5 mM (none: 0 mM), blood
[6] = Table 10, single amino acid 2.5 mM, in the presence of blood, 50 min
[7] = Table 13, single amino acid 2.5 mM, in the presence of blood, 50 min
[8] = single amino acid 2.5 mM, blood
[9] = amino acid alone 5 mM, without replication
[10] = Table 7, amino acid analogue 5 mM, blood
[11] = Table 3, amino acid 5 mM (none: 0 mM), blood
[12] = Table 11, single amino acid 2.5 mM, in the presence of blood, 50 min
[13] = Table 14, single amino acid 2.5 mM, in the presence of blood, 50 min
[14] = Table 19, amino acid 3.5 mM, 50 min

Question: Which “Log 10 (CFU + 1) Survivors” value (Staphylococcus aureus [1]; MPO 25 μg/mL, AA 5 mM, 30 min) does the source give for `NCC(=O)O` [Glycine] here?
Answer: The value was 7.2.

Question: What about the “Log 10 (CFU + 1) Survivors” value (Staphylococcus aureus [1]; MPO 25 μg/mL, AA 5 mM, 60 min) of the same compound?
Answer: The value was 6.8.

Question: And the “Log 10 (CFU + 1) Survivors” value (Staphylococcus aureus [1]; MPO 25 μg/mL, AA […], 30 min)?
Answer: Its value is 7.3.

Question: And the “Log 10 (CFU + 1) Survivors” value (Staphylococcus aureus [1]; MPO 25 μg/mL, AA […], 60 min)?
Answer: The value was 6.9.

Question: What about the “Log 10 (CFU + 1) Survivors” value (Staphylococcus aureus [1]; MPO 100 μg/mL, AA 5 mM, 30 min) of the same compound?
Answer: Its value is 6.0.

Question: And the “Log 10 (CFU + 1) Survivors” value (Staphylococcus aureus [1]; MPO 100 μg/mL, AA 5 mM, 60 min)?
Answer: The value was 0.0.

Question: What about the “Log 10 (CFU + 1) Survivors” value (Staphylococcus aureus [1]; [3]) of the same compound?
Answer: Its value is 7.0.

Question: And the “Log 10 (CFU + 1) Survivors” value (Staphylococcus aureus [1]; [4])?
Answer: The value was 0.0.

Question: What about the “Average Viability CFU/ml 60 min” value (Staphylococcus aureus [1]; [5]) of the same compound?
Answer: Its value is 0 CFU/ml.

Question: What about the “Log 10 (CFU + 1) Survivors 60 min” value (Staphylococcus aureus [1]; [5]) of the same compound?
Answer: Its value is 0.0.

Question: And the “Log Reduction 60 min” value (Staphylococcus aureus [1]; [5])?
Answer: Its value is 7.4.

Question: What about the “Average Viability CFU/ml 50 min” value (Staphylococcus aureus [1]; [6]) of the same compound?
Answer: The value was 9100 CFU/ml.

Question: And the “Log Reduction 50 min” value (Staphylococcus aureus [1]; [6])?
Answer: Its value is 3.4.

Question: And the “Average Viability CFU/ml 50 min” value (Staphylococcus aureus [1]; [7])?
Answer: The value was 10050 CFU/ml.

Question: What about the “Log Reduction 50 min” value (Staphylococcus aureus [1]; [7]) of the same compound?
Answer: The value was 3.4.

Question: And the “Average Viability CFU/ml 50 min” value (Staphylococcus aureus [1]; [8])?
Answer: The value was 7050 CFU/ml.

Question: What about the “Log Reduction 50 min” value (Staphylococcus aureus [1]; [8]) of the same compound?
Answer: Its value is 3.5.

Question: What about the “CFU survivors, amino acid acting separately” value (Staphylococcus aureus [1]; standard conditions of Example 5 (2.5 μmol/mL; MPO 4.7 U/mL; GO 4.2 U/mL)) of the same compound?
Answer: Its value is 9300 CFU.

Question: And the log reduction at 5000 µM (Staphylococcus aureus [2]; [9])?
Answer: The log reduction at 5000 µM was 0.

Question: And the “Average Viability CFU/ml 60 min” value (Staphylococcus aureus [2]; [9])?
Answer: The value was 25300000 CFU/ml.

Question: With `CCOC(=O)C(C)N` (stereo not shown) [Ethyl 2-aminopropanoate] as the compound, how does the “Average Viability CFU/ml 60 min” value (Staphylococcus aureus [1]; [10]) read?
Answer: Its value is 0 CFU/ml.

Question: And the “Log Reduction 60 min” value (Staphylococcus aureus [1]; [10])?
Answer: Its value is 7.4.

Question: What about the log reduction at 5000 µM (Staphylococcus aureus [2]; amino acid analogue alone 5 mM) of the same compound?
Answer: Its log reduction at 5000 µM is 0.

Question: And the “Average Viability CFU/ml 60 min” value (Staphylococcus aureus [2]; amino acid analogue alone 5 mM)?
Answer: Its value is 23200000 CFU/ml.

Question: `CC[C@H](C)[C@H](N)C(=O)O` [L-Isoleucine] was tested. Which “Log 10 (CFU + 1) Survivors” value (Staphylococcus aureus [1]; MPO 25 μg/mL, AA 5 mM, 30 min) did it give?
Answer: Its value is 0.0.

Question: And the “Log 10 (CFU + 1) Survivors” value (Staphylococcus aureus [1]; MPO 25 μg/mL, AA 5 mM, 60 min)?
Answer: Its value is 0.0.

Question: What about the “Log 10 (CFU + 1) Survivors” value (Staphylococcus aureus [1]; MPO 25 μg/mL, AA […], 30 min) of the same compound?
Answer: The value was 2.1.

Question: What about the “Log 10 (CFU + 1) Survivors” value (Staphylococcus aureus [1]; MPO 25 μg/mL, AA […], 60 min) of the same compound?
Answer: The value was 0.0.

Question: And the “Log 10 (CFU + 1) Survivors” value (Staphylococcus aureus [1]; MPO 100 μg/mL, AA 5 mM, 30 min)?
Answer: The value was 0.0.

Question: And the “Log 10 (CFU + 1) Survivors” value (Staphylococcus aureus [1]; MPO 100 μg/mL, AA 5 mM, 60 min)?
Answer: Its value is 0.0.

Question: What about the “Log 10 (CFU + 1) Survivors” value (Staphylococcus aureus [1]; [3]) of the same compound?
Answer: The value was 0.0.

Question: And the “Log 10 (CFU + 1) Survivors” value (Staphylococcus aureus [1]; [4])?
Answer: Its value is 0.0.

Question: And the “Average Viability CFU/ml 60 min” value (Staphylococcus aureus [1]; [11])?
Answer: Its value is 0 CFU/ml.

Question: What about the “Log 10 (CFU + 1) Survivors 60 min” value (Staphylococcus aureus [1]; [11]) of the same compound?
Answer: The value was 0.0.

Question: And the “Log Reduction 60 min” value (Staphylococcus aureus [1]; [11])?
Answer: The value was 7.3.

Question: And the “Average Viability CFU/ml 50 min” value (Staphylococcus aureus [1]; [6])?
Answer: Its value is 159500 CFU/ml.

Question: What about the “Log Reduction 50 min” value (Staphylococcus aureus [1]; [6]) of the same compound?
Answer: The value was 2.2.

Question: And the “Average Viability CFU/ml 50 min” value (Staphylococcus aureus [1]; [12])?
Answer: The value was 155500 CFU/ml.

Question: What about the “Log Reduction 50 min” value (Staphylococcus aureus [1]; [12]) of the same compound?
Answer: Its value is 2.2.

Question: What about the “Average Viability CFU/ml 50 min” value (Staphylococcus aureus [1]; [13]) of the same compound?
Answer: Its value is 117000 CFU/ml.

Question: And the “Log Reduction 50 min” value (Staphylococcus aureus [1]; [13])?
Answer: The value was 2.4.

Question: And the “Average Viability CFU/ml 50 min” value (Staphylococcus aureus [1]; [14])?
Answer: Its value is 129333 CFU/ml.

Question: And the “Log Reduction 50 min” value (Staphylococcus aureus [1]; [14])?
Answer: Its value is 2.3.

Question: What about the “Average Viability CFU/ml 50 min” value (Staphylococcus aureus [1]; [8]) of the same compound?
Answer: The value was 73000 CFU/ml.

Question: And the “Log Reduction 50 min” value (Staphylococcus aureus [1]; [8])?
Answer: The value was 2.5.

Question: And the log reduction at 5000 µM (Staphylococcus aureus [2]; [9])?
Answer: The log reduction at 5000 µM was 0.

Question: What about the “Average Viability CFU/ml 60 min” value (Staphylococcus aureus [2]; [9]) of the same compound?
Answer: The value was 20500000 CFU/ml.

Question: `CC(C)CC(N)CC(=O)O` (racemic) [DL-Beta-homoleucine] was tested. Which “Average Viability CFU/ml 60 min” value (Staphylococcus aureus [1]; [10]) did it give?
Answer: Its value is 0 CFU/ml.

Question: And the “Log Reduction 60 min” value (Staphylococcus aureus [1]; [10])?
Answer: The value was 7.4.

Question: What about the log reduction at 5000 µM (Staphylococcus aureus [2]; amino acid analogue alone 5 mM) of the same compound?
Answer: The log reduction at 5000 µM was 0.

Question: And the “Average Viability CFU/ml 60 min” value (Staphylococcus aureus [2]; amino acid analogue alone 5 mM)?
Answer: Its value is 20500000 CFU/ml.

Question: Which “Log 10 (CFU + 1) Survivors” value (Staphylococcus aureus [1]; MPO 25 μg/mL, AA 5 mM, 30 min) does the source give for `N[C@@H](Cc1ccccc1)C(=O)O` [L-Phenylalanine] here?
Answer: The value was 7.1.

Question: And the “Log 10 (CFU + 1) Survivors” value (Staphylococcus aureus [1]; MPO 25 μg/mL, AA 5 mM, 60 min)?
Answer: The value was 0.0.

Question: What about the “Log 10 (CFU + 1) Survivors” value (Staphylococcus aureus [1]; MPO 25 μg/mL, AA […], 30 min) of the same compound?
Answer: Its value is 7.0.

Question: And the “Log 10 (CFU + 1) Survivors” value (Staphylococcus aureus [1]; MPO 25 μg/mL, AA […], 60 min)?
Answer: The value was 4.9.

Question: What about the “Log 10 (CFU + 1) Survivors” value (Staphylococcus aureus [1]; MPO 100 μg/mL, AA 5 mM, 30 min) of the same compound?
Answer: The value was 0.0.

Question: And the “Log 10 (CFU + 1) Survivors” value (Staphylococcus aureus [1]; MPO 100 μg/mL, AA 5 mM, 60 min)?
Answer: Its value is 0.0.

Question: And the “Log 10 (CFU + 1) Survivors” value (Staphylococcus aureus [1]; [3])?
Answer: The value was 0.0.

Question: And the “Log 10 (CFU + 1) Survivors” value (Staphylococcus aureus [1]; [4])?
Answer: The value was 0.0.

Question: And the “Average Viability CFU/ml 60 min” value (Staphylococcus aureus [1]; [5])?
Answer: The value was 0 CFU/ml.

Question: And the “Log 10 (CFU + 1) Survivors 60 min” value (Staphylococcus aureus [1]; [5])?
Answer: The value was 0.0.

Question: What about the “Log Reduction 60 min” value (Staphylococcus aureus [1]; [5]) of the same compound?
Answer: Its value is 7.4.

Question: What about the “Average Viability CFU/ml 50 min” value (Staphylococcus aureus [1]; [6]) of the same compound?
Answer: Its value is 10550000 CFU/ml.

Question: What about the “Log Reduction 50 min” value (Staphylococcus aureus [1]; [6]) of the same compound?
Answer: Its value is 0.4.

Question: What about the “Average Viability CFU/ml 50 min” value (Staphylococcus aureus [1]; [12]) of the same compound?
Answer: Its value is 11100000 CFU/ml.

Question: What about the “Log Reduction 50 min” value (Staphylococcus aureus [1]; [12]) of the same compound?
Answer: The value was 0.4.

Question: And the “Average Viability CFU/ml 50 min” value (Staphylococcus aureus [1]; [13])?
Answer: Its value is 12050000 CFU/ml.

Question: And the “Log Reduction 50 min” value (Staphylococcus aureus [1]; [13])?
Answer: Its value is 0.3.

Question: And the “Average Viability CFU/ml 50 min” value (Staphylococcus aureus [1]; [14])?
Answer: Its value is 11200000 CFU/ml.

Question: What about the “Log Reduction 50 min” value (Staphylococcus aureus [1]; [14]) of the same compound?
Answer: The value was 0.4.

Question: What about the log reduction at 5000 µM (Staphylococcus aureus [2]; [9]) of the same compound?
Answer: Its log reduction at 5000 µM is 0.

Question: What about the “Average Viability CFU/ml 60 min” value (Staphylococcus aureus [2]; [9]) of the same compound?
Answer: The value was 22400000 CFU/ml.

Question: Which “Average Viability CFU/ml 60 min” value (Staphylococcus aureus [1]; [10]) does the source give for `COC(=O)[C@@H]1CCCN1.Cl` [L-Proline methyl ester hydrochloride] here?
Answer: The value was 0 CFU/ml.

Question: What about the “Log Reduction 60 min” value (Staphylococcus aureus [1]; [10]) of the same compound?
Answer: The value was 7.4.

Question: What about the log reduction at 5000 µM (Staphylococcus aureus [2]; amino acid analogue alone 5 mM) of the same compound?
Answer: Its log reduction at 5000 µM is 0.

Question: And the “Average Viability CFU/ml 60 min” value (Staphylococcus aureus [2]; amino acid analogue alone 5 mM)?
Answer: The value was 23200000 CFU/ml.
